Source: ChEMBL document CHEMBL4184185, “Dihydrobenzisoxazole-4-one compounds are novel selective inhibitors of aldosterone synthase (CYP11B2) with in vivo activity” (Bioorg Med Chem Lett, 2018)

Columns and labels:
[1] = Clearance in cynomolgus monkey hepatocytes relative to hepatic blood flow; type: ADME, cell-based, Macaca fascicularis, Hepatocyte; conditions: read-out: CLH
[2] = Plasma concentration in ACTH-stimulated cynomolgus monkey at 0.1 mg/kg, iv administered 5 mins before ACTH challenge measured after 3 hrs; type: ADME, organism-based, Macaca fascicularis
[3] = Inhibition of cynomolgus monkey adrenal mitochondrial CYP11B2 using corticosterone as substrate after 60 mins in presence of NADPH by mass spectrometric analysis
[4] = Plasma concentration in ACTH-stimulated cynomolgus monkey at 0.1 mg/kg, iv administered 5 mins before ACTH challenge measured at 15 mins post dose; type: ADME, organism-based, Macaca fascicularis
Cytochrome P450 2D6 = Cytochrome P450 2D6 (Homo sapiens, UniProt P10635); experiment: Inhibition of CYP2D6 (unknown origin) at 30 uM; type: ADME
Cynomolgus monkey [5] = experiment: Clearance in iv dosed cynomolgus monkey relative to hepatic blood flow; type: ADME, organism-based, Macaca fascicularis; conditions: in vivo
Aromatase [6] = molecular target: T1, Aromatase (Homo sapiens, UniProt P11511); experiment: Inhibition of CYP19A1 (unknown origin)
T1 sequence (P11511 whole entry): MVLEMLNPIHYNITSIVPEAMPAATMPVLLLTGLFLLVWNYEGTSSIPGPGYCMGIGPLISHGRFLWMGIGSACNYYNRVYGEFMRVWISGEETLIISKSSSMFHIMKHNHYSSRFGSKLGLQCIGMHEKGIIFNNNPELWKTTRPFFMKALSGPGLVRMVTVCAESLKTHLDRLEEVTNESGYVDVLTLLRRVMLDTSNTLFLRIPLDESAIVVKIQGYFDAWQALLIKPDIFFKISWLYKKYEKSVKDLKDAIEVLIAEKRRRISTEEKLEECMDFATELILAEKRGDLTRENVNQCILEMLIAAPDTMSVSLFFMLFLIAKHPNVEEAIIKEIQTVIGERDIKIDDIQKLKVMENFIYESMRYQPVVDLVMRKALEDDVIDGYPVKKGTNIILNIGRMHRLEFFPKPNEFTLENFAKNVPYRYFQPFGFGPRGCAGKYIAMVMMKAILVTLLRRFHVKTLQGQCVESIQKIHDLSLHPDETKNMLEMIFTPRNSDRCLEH

[7] = Oral bioavailability in Wistar Han rat; type: ADME, organism-based; conditions: in vivo
Cynomolgus monkey [8] = experiment: In vivo inhibition of ACTH-stimulated aldosterone level in cynomolgus monkey assessed as change in plasma aldosterone AUC (0 to 3 hrs) at 8 mg/kg, iv administered 5 mins before ACTH challenge relative to control; type: functional, Macaca fascicularis; design: scale not given: the % may be the effect or the level left
Cytochrome P450 3A4 = Cytochrome P450 3A4 (Homo sapiens, UniProt P08684); experiment: Inhibition of CYP3A4 (unknown origin) at 30 uM; type: ADME
Cynomolgus monkey [9] = experiment: In vivo inhibition of ACTH-stimulated aldosterone level in cynomolgus monkey assessed as change in plasma aldosterone AUC (0 to 3 hrs) at 1 mg/kg, iv administered 5 mins before ACTH challenge relative to control; type: functional, Macaca fascicularis; design: scale not given: the % may be the effect or the level left
[10] = Clearance in human hepatocytes relative to hepatic blood flow; type: ADME, cell-based, Hepatocyte; conditions: read-out: CLH
Cynomolgus monkey [11] = experiment: In vivo inhibition of ACTH-stimulated aldosterone level in cynomolgus monkey assessed as change in plasma aldosterone AUC (0 to 3 hrs) at 0.1 mg/kg, iv administered 5 mins before ACTH challenge relative to control; type: functional, Macaca fascicularis; design: scale not given: the % may be the effect or the level left
[12] = Clearance in human liver microsomes relative to hepatic blood flow; type: ADME, microsome; conditions: read-out: CLH
Cytochrome P450 2C9 = Cytochrome P450 2C9 (Homo sapiens, UniProt P11712); experiment: Inhibition of CYP2C9 (unknown origin) at 30 uM; type: ADME
[13] = Clearance in Beagle dog hepatocytes relative to hepatic blood flow; type: ADME, cell-based, Canis lupus familiaris, Hepatocyte; conditions: read-out: CLH
[14] = Oral bioavailability in cynomolgus monkey; type: ADME, organism-based, Macaca fascicularis; conditions: in vivo
Macaca fascicularis = species on record: Macaca fascicularis; experiment: Selectivity index, ratio of IC50 for cynomolgus monkey adrenal mitochondrial CYP11B1 to IC50 for cynomolgus monkey adrenal mitochondrial CYP11B2
[15] = Oral bioavailability in Beagle dog; type: ADME, organism-based, Canis lupus familiaris; conditions: in vivo
[16] = Plasma concentration in ACTH-stimulated cynomolgus monkey at 8 mg/kg, iv administered 5 mins before ACTH challenge measured at 15 mins post dose; type: ADME, organism-based, Macaca fascicularis
Cynomolgus monkey [17] = experiment: Effect on ACTH-stimulated plasma cortisol level in cynomolgus monkey up to 8 mg/kg, iv administered 5 mins before ACTH challenge measured after 3 hrs; type: ADME, organism-based, Macaca fascicularis; conditions: in vivo
[18] = Unbound plasma concentration in ACTH-stimulated cynomolgus monkey at 0.1 mg/kg, iv administered 5 mins before ACTH challenge measured at 15 mins post dose; type: ADME, organism-based, Macaca fascicularis; conditions: in vivo, 0.25 h
[19] = Inhibition of cynomolgus monkey adrenal mitochondrial CYP11B1 using 11-deoxycortisol as substrate after 90 mins in presence of NADPH by mass spectrometric analysis
[20] = Clearance in Wistar Han rat hepatocytes relative to hepatic blood flow; type: ADME, cell-based, Hepatocyte; conditions: read-out: CLH
[21] = Unbound plasma concentration in ACTH-stimulated cynomolgus monkey at 8 mg/kg, iv administered 5 mins before ACTH challenge measured at 15 mins post dose; type: ADME, organism-based, Macaca fascicularis; conditions: in vivo, 0.25 h
Aromatase [22] = molecular target: T1, Aromatase; experiment: Inhibition of CYP19A1 (unknown origin) at 20 uM
Canis familiaris = experiment: Clearance in iv dosed Beagle dog relative to hepatic blood flow; type: ADME, organism-based, Canis lupus familiaris; conditions: in vivo
[23] = Unbound plasma concentration in ACTH-stimulated cynomolgus monkey at 0.1 mg/kg, iv administered 5 mins before ACTH challenge measured after 3 hrs; type: ADME, organism-based, Macaca fascicularis; conditions: in vivo
Rattus norvegicus = experiment: Clearance in iv dosed Wistar Han rat relative to hepatic blood flow; type: ADME, organism-based; conditions: in vivo
[24] = molecular target: T2, Steroid 17-alpha-hydroxylase/17,20 lyase (Homo sapiens, UniProt P05093); experiment: Inhibition of CYP17A1 (unknown origin); type: ADME
T2 sequence (P05093 whole entry): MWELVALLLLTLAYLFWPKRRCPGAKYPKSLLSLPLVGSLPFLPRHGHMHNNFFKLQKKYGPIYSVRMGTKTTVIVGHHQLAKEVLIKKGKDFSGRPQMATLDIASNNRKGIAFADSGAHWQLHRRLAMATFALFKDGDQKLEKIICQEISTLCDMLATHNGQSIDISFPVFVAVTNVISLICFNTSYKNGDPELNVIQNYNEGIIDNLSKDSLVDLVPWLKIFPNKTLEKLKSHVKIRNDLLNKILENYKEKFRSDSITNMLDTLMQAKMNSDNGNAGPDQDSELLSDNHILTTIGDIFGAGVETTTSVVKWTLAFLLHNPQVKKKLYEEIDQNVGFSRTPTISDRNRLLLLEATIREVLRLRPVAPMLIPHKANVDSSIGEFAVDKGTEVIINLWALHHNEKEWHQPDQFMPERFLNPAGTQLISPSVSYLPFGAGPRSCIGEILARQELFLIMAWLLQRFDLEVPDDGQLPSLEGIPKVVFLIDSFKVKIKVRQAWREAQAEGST

Cynomolgus monkey [25] = experiment: In vivo inhibition of ACTH-stimulated aldosterone level in iv dosed cynomolgus monkey assessed as change in plasma aldosterone AUC (0 to 3 hrs) administered 5 mins before ACTH challenge; type: functional, organism-based; conditions: Macaca fascicularis

Cytochrome P450 2D6, sequence (P10635 whole entry): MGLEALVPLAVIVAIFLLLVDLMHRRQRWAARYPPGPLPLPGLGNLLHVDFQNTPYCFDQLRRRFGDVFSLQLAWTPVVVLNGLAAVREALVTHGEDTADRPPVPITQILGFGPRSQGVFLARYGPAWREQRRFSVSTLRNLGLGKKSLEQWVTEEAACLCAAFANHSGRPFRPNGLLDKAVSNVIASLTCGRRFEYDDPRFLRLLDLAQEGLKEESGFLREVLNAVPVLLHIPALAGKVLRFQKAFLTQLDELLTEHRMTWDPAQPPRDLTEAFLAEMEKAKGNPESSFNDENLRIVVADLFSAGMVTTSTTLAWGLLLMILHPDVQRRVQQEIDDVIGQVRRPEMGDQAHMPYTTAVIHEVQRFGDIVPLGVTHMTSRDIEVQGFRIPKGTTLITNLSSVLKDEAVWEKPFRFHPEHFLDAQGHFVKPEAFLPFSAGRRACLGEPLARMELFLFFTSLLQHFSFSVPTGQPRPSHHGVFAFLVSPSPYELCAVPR
Cytochrome P450 2C9, sequence (P11712 whole entry): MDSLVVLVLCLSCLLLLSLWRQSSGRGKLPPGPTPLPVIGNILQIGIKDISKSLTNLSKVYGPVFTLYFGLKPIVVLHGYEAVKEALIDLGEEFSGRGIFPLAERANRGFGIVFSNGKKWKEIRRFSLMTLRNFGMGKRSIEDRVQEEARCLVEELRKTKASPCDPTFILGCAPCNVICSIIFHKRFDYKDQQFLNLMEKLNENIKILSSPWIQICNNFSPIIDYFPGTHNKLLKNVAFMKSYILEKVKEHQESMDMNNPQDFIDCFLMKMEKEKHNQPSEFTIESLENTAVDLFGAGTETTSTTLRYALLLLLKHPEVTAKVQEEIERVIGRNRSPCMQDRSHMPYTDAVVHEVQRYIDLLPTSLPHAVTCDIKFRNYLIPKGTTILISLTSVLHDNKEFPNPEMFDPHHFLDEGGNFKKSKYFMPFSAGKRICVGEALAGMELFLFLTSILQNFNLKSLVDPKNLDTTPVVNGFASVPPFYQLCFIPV
Cytochrome P450 3A4, sequence (P08684 whole entry): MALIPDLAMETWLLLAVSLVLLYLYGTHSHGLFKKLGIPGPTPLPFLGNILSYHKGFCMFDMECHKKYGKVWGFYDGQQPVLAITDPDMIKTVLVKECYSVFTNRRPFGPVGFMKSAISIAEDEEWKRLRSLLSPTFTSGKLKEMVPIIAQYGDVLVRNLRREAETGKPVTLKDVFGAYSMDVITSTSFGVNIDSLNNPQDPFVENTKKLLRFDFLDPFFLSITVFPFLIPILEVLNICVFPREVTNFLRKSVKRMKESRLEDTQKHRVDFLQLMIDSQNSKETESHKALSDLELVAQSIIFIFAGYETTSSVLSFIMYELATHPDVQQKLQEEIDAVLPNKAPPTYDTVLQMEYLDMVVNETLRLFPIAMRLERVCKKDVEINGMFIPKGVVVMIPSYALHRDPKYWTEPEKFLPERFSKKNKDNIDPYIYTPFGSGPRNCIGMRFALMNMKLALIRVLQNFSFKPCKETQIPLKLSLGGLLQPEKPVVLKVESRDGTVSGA

CN(CCO)C(=O)c1ccc(Cc2onc3c2C(=O)CC(C)(C)C3)cc1
hepatic extraction ratio [1]: 0.34 | concentration at 3 h [2]: 78 nM | IC50 [3]: 0.092 µM | pIC50 [3]: 7 | concentration at 0.25 h [4]: 160 nM | inhibition (INH) (Cytochrome P450 2D6): Not Active | CL (Cynomolgus monkey [5]): 32% | IC50 (Aromatase [6]): > 31.6 µM | bioavailability [7]: 14% | Activity (Cynomolgus monkey [8]): -92.3% | inhibition (INH) (Cytochrome P450 3A4): Not Active | Activity (Cynomolgus monkey [9]): -87.9% | hepatic extraction ratio [10]: < 0.21 | Activity (Cynomolgus monkey [11]): -62.4% | hepatic extraction ratio [12]: < 0.24 | inhibition (INH) (Cytochrome P450 2C9): Not Active | hepatic extraction ratio [13]: < 0.3 | bioavailability [14]: 91% | Ratio IC50 (Macaca fascicularis): 100 | bioavailability [15]: 91% | concentration at 0.25 h [16]: 9600 nM | Activity (Cynomolgus monkey [17]): Non-Toxic | Cp(f) [18]: 93 nM | pIC50 [19]: 5 | hepatic extraction ratio [20]: 0.52 | Cp(f) [21]: 5700 nM | inhibition (INH) (Aromatase [22]): Not Active | CL (Canis familiaris): 9.7% | Cp(f) [23]: 46 nM | CL (Rattus norvegicus): 24% | IC50 [24]: > 31.6 µM | inhibition (Cynomolgus monkey [25]): Dose-dependent effect
